# Structures can show the parent of a compound that is named as a salt.
# What was measured:
# [1] = concentrated (>1%) solution cannot be generated by Nakazato technique; cited from earlier work
# [2] = system: HeLa (human cervix carcinoma cells); experiment: Phototoxicity in HeLa cells under irradiation at 662 nm, MTT assay; type: cell-based; details: 30-minute incubation, 10 J/cm^2 irradiation
# Description: Illumination was performed at 662 nm (Ceralas PDT laser, BioLitec AG, Germany; 150 mW/cm^2, 5-20 J/cm^2) after a 30-minute incubation period. Cell survival was measured using the MTT assay. Values are expressed as percentages of illuminated, but non-incubated controls. Experiments were performed in octuplets.
# [3] = 4° C. in the dark, cited from earlier work
compound,measurement,setting,value
"C=Cc1c(C)c2cc3nc(c4c5[nH]c(cc6nc(cc1[nH]2)C(C)=C6CC)c(C)c5C(=O)[C@@H]4C(=O)OC)[C@@H](CCC(=O)O)[C@@H]3C [sodium salt of pheophorbide a (4), sodium salt of pheophorbide a]",concentration of injectable solution in water that can be generated,[1],≤ 1%
salt of pheophorbide a (5) with N-methyl-D-glucamine,IC50 phototoxicity,[2],8.0 µg/mL
same,IC90 phototoxicity,[2],22.0 µg/mL
trisodium lysyl-chlorin p6,stable in an aqueous solution,[3]; aqueous solution,≤ 24 h
same,stable in solid form,[3]; solid form,up to 4 months

# — patent US6949581B2, “Water-soluble mono-PEGylated tetrapyrrole derivatives for photodynamic therapy and method of production” (CeramOptec Industries, Inc., priority 2003, dated 2005)
